Assay results as given in patent US4380644A, “2-Oxoimidazolidine derivatives” (Tanabe Siyaku Co., Ltd., priority 1980, dated 1983).

How the values were obtained:
[1] = biological target: T1, angiotensin-converting enzyme (ACE) (Rattus norvegicus, UniProt P47820); experiment: ACE-inhibitory activity in vivo (pressor response to angiotensin I); settings: 1.0 mg/kg orally, anesthetized normotensive rats; for Duration of action: ACE inhibition; for inhibition at 1 mg/kg: rat, read-out: ACE-inhibitory activity (%), percentage inhibition of ACE-activity in vivo
T1 construct: Normotensive rats were anesthetized with urethane; from tissue; host or cells: endogenous enzyme of the whole living animal (normotensive rats, in vivo)
T1 sequence (P47820 36-1313): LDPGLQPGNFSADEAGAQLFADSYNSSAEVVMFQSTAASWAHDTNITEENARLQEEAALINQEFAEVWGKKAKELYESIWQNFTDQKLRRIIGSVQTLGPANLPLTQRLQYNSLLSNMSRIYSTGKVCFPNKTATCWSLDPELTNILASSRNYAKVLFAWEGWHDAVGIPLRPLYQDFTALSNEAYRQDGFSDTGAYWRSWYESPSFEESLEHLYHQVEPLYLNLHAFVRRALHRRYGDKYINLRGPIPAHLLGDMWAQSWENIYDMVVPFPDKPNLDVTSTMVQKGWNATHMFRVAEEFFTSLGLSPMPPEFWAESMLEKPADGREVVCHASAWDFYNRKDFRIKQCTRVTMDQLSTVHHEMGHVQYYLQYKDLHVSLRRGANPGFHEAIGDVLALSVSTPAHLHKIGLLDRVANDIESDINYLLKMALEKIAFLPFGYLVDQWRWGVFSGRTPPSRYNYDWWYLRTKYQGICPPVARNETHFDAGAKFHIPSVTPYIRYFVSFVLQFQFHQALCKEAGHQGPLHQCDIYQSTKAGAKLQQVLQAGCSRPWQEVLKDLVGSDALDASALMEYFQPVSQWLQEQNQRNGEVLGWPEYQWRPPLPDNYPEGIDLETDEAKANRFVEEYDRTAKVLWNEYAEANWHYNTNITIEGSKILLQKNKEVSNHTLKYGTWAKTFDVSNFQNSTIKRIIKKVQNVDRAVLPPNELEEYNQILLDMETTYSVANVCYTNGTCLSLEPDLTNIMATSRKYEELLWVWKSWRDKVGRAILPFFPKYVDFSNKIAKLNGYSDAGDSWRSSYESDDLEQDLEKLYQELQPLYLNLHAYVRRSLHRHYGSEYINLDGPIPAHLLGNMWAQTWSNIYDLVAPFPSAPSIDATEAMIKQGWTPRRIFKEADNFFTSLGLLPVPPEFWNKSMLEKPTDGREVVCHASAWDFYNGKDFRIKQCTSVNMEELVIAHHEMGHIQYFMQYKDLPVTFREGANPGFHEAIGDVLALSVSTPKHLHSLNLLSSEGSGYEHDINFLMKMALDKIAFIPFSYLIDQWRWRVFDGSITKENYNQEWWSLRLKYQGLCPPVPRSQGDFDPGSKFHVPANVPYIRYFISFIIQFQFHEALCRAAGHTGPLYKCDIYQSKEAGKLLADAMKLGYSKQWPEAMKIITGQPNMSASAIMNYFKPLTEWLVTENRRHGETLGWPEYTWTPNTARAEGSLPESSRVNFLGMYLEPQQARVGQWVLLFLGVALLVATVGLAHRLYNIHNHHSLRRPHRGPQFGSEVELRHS
Description: ACE-inhibitory activity in vivo:
Normotensive rats were anesthetized with urethane (1.5 g/kg, s.c.), and agiotensin I (75~300 ng/kg) was injected into the femoral vein of the rates. The pressor response to angiotensin I was measured with a pressure transducer connected to the carotid artery. Then, a test compound was administered orally thereto at a dose of 1.0 mg/kg, and angiotensin I (300 ng/kg) was further injected intravenously at intervals. The ACE-inhibitory activity of the test compound was estimated from the pressor responses to angiotensin I which were obtained before and after oral administration of the test compound.

[2] = tested on: spontaneously hypertensive rats (SHR); experiment: Hypotensive activity in SHR; type: in vivo; settings: 50 mg/kg orally; for Decrease in blood pressure (-ΔmmHg): SHR fasted overnight, systolic blood pressure, tail plethysmography
Description: Hypotensive activity in SHR:
A test compound suspended in an aqueous carboxymethylcellulose solution was administered orally to spontaneously hypertensive rats (SHR) fasted overnight. The systolic blood pressure of the rats was measured by the tail plethysmographic technique (The Journal of Laboratory and Clicical Medicine 78 (1971), page 957). The hypotensive activity of the test compound was estimated from the decreased level of blood pressure.

mice = experiment: Toxicity after oral administration to mice; type: in vivo; settings: 3 g/kg orally
Description: For example, when (4S)-1-benzyl- 3-[(2S)-3-benzoylthio-2-methylpropionyl]-2-oxo-imidazolidine-4-carboxylic acid was administered orally to mice at a dose of 3 g/kg, no mouse died within 7 days after said administration.

Compound	Duration of action [1] [min]	inhibition at 1 mg/kg ([1]; angiotensin I 300 ng/kg i.v.) [%]	Decrease in blood pressure (-ΔmmHg) [2] [mmHg]	Decrease in blood pressure (-ΔmmHg) ([2]; listed as (4S)-1-benzyl-3-[(2S)-3-benzoylthio-2-methylpropionyl]-2-oxo-imidazolidine-4-car)	Duration of action ([2]; hypotensive activity, SHR, 50 mg/kg) [h]	Duration of action (hours) ([2]; hypotensive activity, SHR, listed as (4S)-1-benzyl-3-[(2S)-3-benzoylthio-2-methylpropionyl]-2-oxo-imidazolidine-4-car, 50 mg/kg)	Mortality within 7 days after administration (mice)	ACE-inhibitory activity (%), percentage inhibition of ACE-activity in vivo ([1]; angiotensin I 300 ng/kg i.v.)	Duration of action ([2]; hypotensive activity, SHR) [h]
CCN1C[C@@H](C(=O)O)N(C(=O)[C@H](C)CSC(=O)c2ccccc2)C1=O [C2 H5 C6 H5, (4S)-1-ethyl-3-[(2S)-3-benzoylthio-2-methylpropionyl]-2-oxo-imidazolidine-4-carboxylic acid]	> 120	84							
C[C@H](CSC(=O)c1ccccc1)C(=O)N1C(=O)N(Cc2ccccc2)C[C@H]1C(=O)O [C6 H5 CH2 C6 H5, (4S)-1-benzyl-3-[(2S)-3-benzoylthio-2-methylpropionyl]-2-oxo-imidazolidine-4-carboxylic acid]	> 120	76	44	about 44 mmHg	> 6	more than 6 hours	no mouse died		
C[C@H](CSC(=O)c1ccccc1)C(=O)N1C(=O)N(C)C[C@H]1C(=O)O [CH3 C6 H5, (4S)-1-methyl-3-[(2S)-3-benzoylthio-2-methylpropionyl]-2-oxo-imidazolidine-4-carboxylic acid]	> 120	88						about 90%	
CC(=O)SC[C@@H](C)C(=O)N1C(=O)N(C)C[C@H]1C(=O)O [CH3 CH3, (4S)-1-methyl-3-[(2S)-3-acetylthio-2-methylpropionyl]-2-oxo-imidazolidine-4-carboxylic acid]	> 120	67	37						> 6
